This passage reports IC50 results from patent US20240261367A1, “CYCLIC PEPTIDE IMMUNOMODULATORS” (priority 2021, published 2024).

Usually IC50 stands for the point on the concentration scale where inhibition reaches its midpoint. A higher IC50 goes with weaker potency in that assay.

T1 sequence (Q9NZQ7 18-239): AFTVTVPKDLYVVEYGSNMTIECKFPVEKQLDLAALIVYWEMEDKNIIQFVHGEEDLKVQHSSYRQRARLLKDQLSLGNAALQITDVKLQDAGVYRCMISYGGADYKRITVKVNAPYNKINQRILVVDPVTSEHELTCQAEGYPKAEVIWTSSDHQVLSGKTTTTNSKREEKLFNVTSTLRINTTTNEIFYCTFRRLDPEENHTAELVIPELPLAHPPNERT

One assay concerns the target T1, PD-1/PD-L1 (Homo sapiens, UniProt Q9NZQ7).
T1 construct: TVMV protease site linker (C); made in house; host or cells: HEK293T cells
As to the kind of experiment: PD-1/PD-L1 Homogenous Time-Resolved Fluorescence (HTRF) binding assay. To be noted: 10 min incubation. On the technique in general: TR-FRET usually uses a lanthanide donor and a delayed reading to cut background.
In turn, `CCCC[C@H]1C(=O)N(C)[C@@H](CCCC)C(=O)N[C@@H](CC(C)C)C(=O)N[C@H](C(=O)NCC(=O)N[C@@H](Cc2cn(CCOCCOCCOCCOCCOCCOCCOCCOCCOCCOCCOCCNC(=O)CC[C@H](NC(=O)CCCCCCCCCCCCCCCCC(=O)O)C(=O)O)nn2)C(=O)O)CSCC(=O)N[C@@H](Cc2ccc(O)cc2)C(=O)N(C)[C@@H](C)C(=O)N[C@@H](CC(N)=O)C(=O)N2CCC[C@H]2C(=O)N[C@@H](CNC(=O)CC[C@@H](C)[C@H]2CC[C@H]3[C@@H]4[C@H](O)C[C@@H]5C[C@H](O)CC[C@]5(C)[C@H]4C[C@H](O)[C@]23C)C(=O)N[C@@H](CC(C)C)C(=O)N2C[C@H](O)C[C@H]2C(=O)N[C@@H](Cc2c[nH]c3ccccc23)C(=O)N[C@@H](CCN)C(=O)N[C@@H](Cc2cn(CC(=O)O)c3ccccc23)C(=O)N1C` [Example 1006] displayed an IC50 of 28 nM.

The assay is the same for the next values; noted with them: PD-L1-His (10 nM) pre-incubated with inhibitor 15 m, then PD-1-Ig (20 nM).
Compound `CCCC[C@H]1C(=O)N(C)[C@@H](CCCC)C(=O)N[C@@H](CC(C)C)C(=O)N[C@H](C(=O)NCC(=O)N[C@@H](Cc2cn(CCOCCOCCOCCOCCOCCOCCOCCOCCOCCOCCOCCNC(=O)CC[C@H](NC(=O)CCCCCCCCCCCCCCCCC(=O)OCC)C(=O)OC)nn2)C(=O)O)CSCC(=O)N[C@@H](Cc2ccc(O)cc2)C(=O)N(C)[C@@H](C)C(=O)N[C@@H](CC(N)=O)C(=O)N2CCC[C@H]2C(=O)N[C@@H](CN)C(=O)N[C@@H](CC(C)C)C(=O)N2C[C@H](O)C[C@H]2C(=O)N[C@@H](Cc2c[nH]c3ccccc23)C(=O)N[C@@H](CCN)C(=O)N[C@@H](Cc2cn(CC(=O)O)c3ccccc23)C(=O)N1C` [Example 1005] returned an IC50 of 12 nM. On the same count and under the same terms, the figure for `CCCC[C@H]1C(=O)N(C)[C@@H](CCCC)C(=O)N[C@@H](CC(C)C)C(=O)N[C@H](C(=O)NCC(=O)N[C@@H](Cc2cn(CCOCCOCCOCCOCCOCCOCCOCCOCCOCCOCCOCCNC(=O)CC[C@H](NC(=O)CCCCCCCCCCCCCCCCC(=O)O)C(=O)O)nn2)C(=O)O)CSCC(=O)N[C@@H](Cc2ccc(O)cc2)C(=O)N(C)[C@@H](C)C(=O)N[C@@H](CC(N)=O)C(=O)N2CCC[C@H]2C(=O)N[C@@H](CN)C(=O)N[C@@H](CC(C)C)C(=O)N2C[C@H](O)C[C@H]2C(=O)N[C@@H](Cc2c[nH]c3ccccc23)C(=O)N[C@@H](CCNC(=O)OC)C(=O)N[C@@H](Cc2cn(CC(=O)O)c3ccccc23)C(=O)N1C` [Example 5001] is 0.58 nM; for `CCCC[C@H]1C(=O)N(C)[C@@H](CCCC)C(=O)N[C@@H](CC(C)C)C(=O)N[C@H](C(=O)NCC(=O)N[C@@H](Cc2cn(CCOCCOCCOCCOCCOCCOCCOCCOCCOCCOCCOCCNC(=O)CC[C@H](NC(=O)CCCCCCCCCCCCCCCCC(=O)O)C(=O)O)nn2)C(=O)O)CSCC(=O)N[C@@H](Cc2ccc(O)cc2)C(=O)N(C)[C@@H](C)C(=O)N[C@@H](CC(N)=O)C(=O)N2CCC[C@H]2C(=O)N[C@@H](CNC(=O)OCC)C(=O)N[C@@H](CC(C)C)C(=O)N2C[C@H](O)C[C@H]2C(=O)N[C@@H](Cc2c[nH]c3ccccc23)C(=O)N[C@@H](CCNC(=O)OCC)C(=O)N[C@@H](CC2=CC(CC(=O)O)c3ccccc32)C(=O)N1C` (stereo partly shown) [Example 1008] it is 5.9 nM. The same measure, in the same setting: the figure for `CCCC[C@H]1C(=O)N(C)[C@@H](CCCC)C(=O)N[C@@H](CC(C)C)C(=O)N[C@H](C(=O)NCC(=O)N[C@@H](Cc2cn(CCOCCOCCOCCOCCOCCOCCOCCOCCOCCOCCOCCNC(=O)CC[C@H](NC(=O)CCCCCCCCCCCCCCCCC(=O)O)C(=O)O)nn2)C(=O)OC)CSCC(=O)N[C@@H](Cc2ccc(O)cc2)C(=O)N(C)[C@@H](C)C(=O)N[C@@H](CC(N)=O)C(=O)N2CCC[C@H]2C(=O)N[C@@H](CN)C(=O)N[C@@H](CC(C)C)C(=O)N2C[C@H](O)C[C@H]2C(=O)N[C@@H](Cc2c[nH]c3ccccc23)C(=O)N[C@@H](CCN)C(=O)N[C@@H](Cc2cn(CC(=O)OC)c3ccccc23)C(=O)N1C` [Example 3001] is 10 nM; for `CCCC[C@H]1C(=O)N(C)[C@@H](CCCC)C(=O)N[C@@H](CC(C)C)C(=O)N[C@H](C(=O)NCC(=O)N[C@@H](Cc2cn(CCOCCOCCOCCOCCOCCOCCOCCOCCOCCOCCOCCNC(=O)CC[C@H](NC(=O)CCCCCCCCCCCCCCCCC(=O)O)C(=O)O)nn2)C(=O)O)CSCC(=O)N[C@@H](Cc2ccc(O)cc2)C(=O)N(C)[C@@H](C)C(=O)N[C@@H](CC(N)=O)C(=O)N2CCC[C@H]2C(=O)N[C@@H](CNC(=O)OCc2oc(=O)oc2C)C(=O)N[C@@H](CC(C)C)C(=O)N2C[C@H](O)C[C@H]2C(=O)N[C@@H](Cc2c[nH]c3ccccc23)C(=O)N[C@@H](CCNC(=O)OCC)C(=O)N[C@@H](Cc2cn(CC(=O)O)c3ccccc23)C(=O)N1C` [Example 7010] it is 46 nM; for `CCCC[C@H]1C(=O)N(C)[C@@H](CCCC)C(=O)N[C@@H](CC(C)C)C(=O)N[C@H](C(=O)NCC(=O)N[C@@H](Cc2cn(CCOCCOCCOCCOCCOCCOCCOCCOCCOCCOCCOCCNC(=O)CC[C@H](NC(=O)CCCCCCCCCCCCCCCCC(=O)O)C(=O)O)nn2)C(=O)O)CSCC(=O)N[C@@H](Cc2ccc(O)cc2)C(=O)N(C)[C@@H](C)C(=O)N[C@@H](CC(N)=O)C(=O)N2CCC[C@H]2C(=O)N[C@@H](CNC(=O)OC)C(=O)N[C@@H](CC(C)C)C(=O)N2C[C@H](O)C[C@H]2C(=O)N[C@@H](Cc2c[nH]c3ccccc23)C(=O)N[C@@H](CCNC(=O)OCc2oc(=O)oc2C)C(=O)N[C@@H](Cc2cn(CC(=O)O)c3ccccc23)C(=O)N1C` [Example 7005] it is 12 nM.
